Measurements from ChEMBL document CHEMBL1201862, “PubChem BioAssay data set” (2004).
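Following 48 hours of exposure in 96-well plates, responses at five concentrations were used to interpolate endpoints linearly. GI50: concentration for 50% inhibition of growth.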 Calls of active or inactive are those of the source. No stated cut-off is given here; in the data, active = GI50 up to about 1.1 µM and inactive = higher.

Columns and labels:
Assay in all cases: NCI-60 cell line screen, 48 h
ACHN = test system: ACHN
CAKI-1 = test system: CAKI-1
HCC 2998 = test system: HCC 2998
HOP-62 = test system: HOP-62
HOP-92 = test system: HOP-92
IGROV-1 = test system: IGROV-1
LOX IMVI = test system: LOX IMVI
MDA-MB-231 = test system: MDA-MB-231
Malme-3M = test system: Malme-3M
NCI-H226 = test system: NCI-H226
NCI-H23 = test system: NCI-H23
OVCAR-8 = test system: OVCAR-8
PC-3 = test system: PC-3
RPMI-8226 = test system: RPMI-8226
RXF 393 = test system: RXF 393
SF-268 = test system: SF-268
SK-MEL-28 = test system: SK-MEL-28
SK-MEL-5 = test system: SK-MEL-5
SK-OV-3 = test system: SK-OV-3
U-251 = test system: U-251

Compound | GI50 (ACHN) | GI50 (CAKI-1) | GI50 (HCC 2998) | GI50 (HOP-62) | GI50 (HOP-92) | GI50 (IGROV-1) | GI50 (LOX IMVI) | GI50 (MDA-MB-231) | GI50 (Malme-3M) | GI50 (NCI-H226) | GI50 (NCI-H23) | GI50 (OVCAR-8) | GI50 (PC-3) | GI50 (RPMI-8226) | GI50 (RXF 393) | GI50 (SF-268) | GI50 (SK-MEL-28) | GI50 (SK-MEL-5) | GI50 (SK-OV-3) | GI50 (U-251)
COc1ccc(C(=O)/C=C/c2ccc(O)c(O)c2)c(OC)c1 | 10.9 µM (inactive) | 6.27 µM (inactive) | 1.21 µM (inactive) | 4.32 µM (inactive) | 28.8 µM (inactive) | 0.887 µM (active) | 3.58 µM (inactive) | 2.71 µM (inactive) | 4.65 µM (inactive) | 6.64 µM (inactive) | 2.31 µM (inactive) | 10.8 µM (inactive) | 4.8 µM (inactive) | 0.7 µM (active) | 8.18 µM (inactive) | 1.4 µM (inactive) | 7.6 µM (inactive) | 1.85 µM (inactive) | 5.15 µM (inactive) | 1.7 µM (inactive)
O=C1/C(=C/c2ccc(O)cc2)CCc2ccccc21 | 21.1 µM (inactive) | 31.3 µM (inactive) | 22 µM (inactive) | 22.9 µM (inactive) | 36.2 µM (inactive) | 26.9 µM (inactive) | 20 µM (inactive) | 20.5 µM (inactive) | 20.7 µM (inactive) | 24.5 µM (inactive) | 23.4 µM (inactive) | 27.2 µM (inactive) | 16.8 µM (inactive) | 6.5 µM (inactive) | 17.1 µM (inactive) | 16.1 µM (inactive) | 19.2 µM (inactive) | 16.9 µM (inactive) | > 55.6 µM (inactive) | 27.6 µM (inactive)
COc1ccc2c[n+](C)c3c4cc(OC)c(OC)cc4ccc3c2c1 | 64.6 µM (inactive) | 42.3 µM (inactive) | 8.11 µM (inactive) | 8.02 µM (inactive) | 10.1 µM (inactive) | 4.89 µM (inactive) | 4.72 µM (inactive) | 0.944 µM (active) | 7.6 µM (inactive) | 15.5 µM (inactive) | 3.12 µM (inactive) | 2.14 µM (inactive) | 0.849 µM (active) | 2.96 µM (inactive) | 15.6 µM (inactive) | 1.79 µM (inactive) | 18.9 µM (inactive) | 14.7 µM (inactive) | 2.99 µM (inactive) | 1.49 µM (inactive)
Cc1ccc(O)c(C(c2ccc(C(c3cc(C)ccc3O)c3cc(C)ccc3O)cc2)c2cc(C)ccc2O)c1 | 1.78 µM (inactive) | 1.56 µM (inactive) | 1.8 µM (inactive) | 1.92 µM (inactive) | 2.32 µM (inactive) | 1.67 µM (inactive) | 1.69 µM (inactive) | 1.25 µM (inactive) | 1.88 µM (inactive) | 1.86 µM (inactive) | 1.79 µM (inactive) | 1.81 µM (inactive) | 1.59 µM (inactive) | 1.56 µM (inactive) | 1.79 µM (inactive) | 1.62 µM (inactive) | 1.81 µM (inactive) | 1.77 µM (inactive) | 1.68 µM (inactive) | 1.98 µM (inactive)
CC1CC[C@@]2(OC1)OC1C[C@H]3[C@@H]4CC[C@H]5CC(OC6OC(CO)C(O)C(OC7OC(CO)C(OC8OC(CO)C(O)C(OC9OC(CO)C(O)C(O)C9O)C8OC8OC(CO)C(O)C(O)C8O)C(O)C7O)C6O)[C@H](O)CC5(C)[C@H]4CCC3(C)C1[C@@H]2C (stereo not given in full) | 1.9 µM (inactive) | 4.11 µM (inactive) | 1.43 µM (inactive) | 2.28 µM (inactive) | 4.88 µM (inactive) | 1.44 µM (inactive) | 2.29 µM (inactive) | 1.31 µM (inactive) | 8.18 µM (inactive) | 6.53 µM (inactive) | 5.31 µM (inactive) | 1.7 µM (inactive) | 1.29 µM (inactive) | 2.55 µM (inactive) | 1.34 µM (inactive) | 5 µM (inactive) | 7.45 µM (inactive) | 6.95 µM (inactive) | 6.95 µM (inactive) | 2.7 µM (inactive)
c1ccc2c[n+](Cc3ccnc4ccccc34)ccc2c1 | > 100 µM (inactive) | > 100 µM (inactive) | > 100 µM (inactive) | > 100 µM (inactive) | 97.7 µM (inactive) | > 100 µM (inactive) | > 100 µM (inactive) | > 100 µM (inactive) | > 100 µM (inactive) | 41.8 µM (inactive) | > 100 µM (inactive) | > 100 µM (inactive) | > 100 µM (inactive) | > 100 µM (inactive) | > 100 µM (inactive) | > 100 µM (inactive) | > 100 µM (inactive) | 42.8 µM (inactive) | > 100 µM (inactive) | > 100 µM (inactive)
Clc1nc2c(C#Cc3ccccc3)ncnc2n1C1CCCCO1 (stereo not given) | 16.1 µM (inactive) | 10 µM (inactive) | 14.7 µM (inactive) | 31.2 µM (inactive) | 14.8 µM (inactive) | 13.5 µM (inactive) | 12.6 µM (inactive) | 16.6 µM (inactive) | 17.6 µM (inactive) | 71.3 µM (inactive) | 12.9 µM (inactive) | 19.9 µM (inactive) | 12.2 µM (inactive) | 4.12 µM (inactive) | 10.4 µM (inactive) | 14 µM (inactive) | 26.5 µM (inactive) | 11.6 µM (inactive) | 27.6 µM (inactive) | 12.6 µM (inactive)
CC(C)(C)OC(=O)C1=C(N)N(Cc2ccccc2)C2(C)C=CC(=O)C=C12 (stereo not given) | 2.47 µM (inactive) | 1.83 µM (inactive) | 14.2 µM (inactive) | 16 µM (inactive) | 2.16 µM (inactive) | 5.31 µM (inactive) | 2.34 µM (inactive) | 6.98 µM (inactive) | 4.92 µM (inactive) | 12.9 µM (inactive) | 9.29 µM (inactive) | 2.45 µM (inactive) | 7.21 µM (inactive) | 2.6 µM (inactive) | 2.44 µM (inactive) | 2.18 µM (inactive) | 7.41 µM (inactive) | 4.31 µM (inactive) | 19.5 µM (inactive) | 8.73 µM (inactive)
N=c1oc2ccccc2cc1C(=O)Nc1cccc2ccccc12 | > 100 µM (inactive) | > 100 µM (inactive) | > 100 µM (inactive) | 50 µM (inactive) | > 100 µM (inactive) | > 100 µM (inactive) | > 100 µM (inactive) | > 100 µM (inactive) | 56.6 µM (inactive) | > 100 µM (inactive) | > 100 µM (inactive) | > 100 µM (inactive) | > 100 µM (inactive) | > 100 µM (inactive) | > 100 µM (inactive) | > 100 µM (inactive) | > 100 µM (inactive) | > 100 µM (inactive) | > 100 µM (inactive) | 82.4 µM (inactive)
O=C1C2CC(Cl)C(SSC3CC4C(=O)N(SC(Cl)(Cl)C(Cl)Cl)C(=O)C4CC3Cl)CC2C(=O)N1SC(Cl)(Cl)C(Cl)Cl (stereo not given) | 2.23 µM (inactive) | 2.11 µM (inactive) | 4.43 µM (inactive) | 2.81 µM (inactive) | 1.61 µM (inactive) | 1.3 µM (inactive) | 1.34 µM (inactive) | 1.54 µM (inactive) | 1.51 µM (inactive) | 3.67 µM (inactive) | 1.66 µM (inactive) | 1.45 µM (inactive) | 1.29 µM (inactive) | 1.81 µM (inactive) | 1.33 µM (inactive) | 1.65 µM (inactive) | 2.15 µM (inactive) | 1.97 µM (inactive) | 3.39 µM (inactive) | 1.4 µM (inactive)
COC(=O)c1cc(C#N)[nH]c1-c1ccc(Br)s1 | 13.7 µM (inactive) | 19.2 µM (inactive) | 17.9 µM (inactive) | 8.39 µM (inactive) | 4.1 µM (inactive) | 7.21 µM (inactive) | 9.14 µM (inactive) | 14.5 µM (inactive) | 7.14 µM (inactive) | 8.55 µM (inactive) | 5.08 µM (inactive) | 12.8 µM (inactive) | 1.75 µM (inactive) | 5.08 µM (inactive) | 4.3 µM (inactive) | 10.1 µM (inactive) | 11.9 µM (inactive) | 4.11 µM (inactive) | 11.6 µM (inactive) | 10.4 µM (inactive)
COc1cc(C=C2C(C)=NN(c3cccc(Cl)c3)C23SCC(=O)N3c2nc3ccccc3s2)ccc1O (stereo not given) | 26.1 µM (inactive) | 29.6 µM (inactive) | 24.3 µM (inactive) | 26 µM (inactive) | 18 µM (inactive) | 29.4 µM (inactive) | 27.5 µM (inactive) | 20.8 µM (inactive) | 16.5 µM (inactive) | 35.1 µM (inactive) | 30.1 µM (inactive) | 20.1 µM (inactive) | 21.3 µM (inactive) | 13.4 µM (inactive) | 29.2 µM (inactive) | 23.2 µM (inactive) | 33 µM (inactive) | 18.2 µM (inactive) | 21.4 µM (inactive) | 18.8 µM (inactive)
CCc1nc(N)nc(N)c1-c1ccc(NCCc2ccccc2)c([N+](=O)[O-])c1 | 0.353 µM (active) | 0.39 µM (active) | 0.745 µM (active) | 1.64 µM (inactive) | 2.21 µM (inactive) | 0.394 µM (active) | 0.199 µM (active) | 8.65 µM (inactive) | 2.38 µM (inactive) | 6.05 µM (inactive) | 0.392 µM (active) | 0.394 µM (active) | 0.272 µM (active) | 1.11 µM (active) | 3.55 µM (inactive) | 0.527 µM (active) | 2.74 µM (inactive) | 0.486 µM (active) | 16.5 µM (inactive) | 0.364 µM (active)
Cc1cnc2[nH]c(-c3cccc(F)c3)cc(=O)c2c1 | 0.0664 µM (active) | 0.0317 µM (active) | 0.111 µM (active) | 0.0662 µM (active) | 1.4 µM (inactive) | 0.161 µM (active) | 0.0668 µM (active) | 0.0505 µM (active) | 0.0232 µM (active) | 0.0432 µM (active) | 0.151 µM (active) | 0.0582 µM (active) | 0.0239 µM (active) | 0.0402 µM (active) | 0.0418 µM (active) | 0.0705 µM (active) | 0.0352 µM (active) | 0.0329 µM (active) | 0.0368 µM (active) | 0.0405 µM (active)
